Data: patent publication US4317821A, “Maytansinoids, their use and pharmaceutical compositions thereof” (Takeda Chemical Industries, Ltd., priority 1979, dated 1982)
Converted amounts (≈) assume the structure as drawn.

How the values were obtained:
[1] = system: melanoma B-16 tumor cells; experiment: Antitumor activity: life span prolongation in mice intraperitoneally transplanted with melanoma B-16 (NCI-protocol 1,300); format: in vivo; details: intraperitoneally once daily for 9 consecutive days
Method: Therapeutic tests were carried out in mice according to NCI-protocol 1,300, Cancer Chemother, Reports, Part 3, 1972, Vol. 3, No. 2, in which melanoma B-16 tumor cells had been intraperitoneally transplanted, compound (I) being administered intraperitoneally once daily for 9 consecutive days.

Tetrahymena pyriformis W = experiment: Antiprotozoal activity: growth inhibition by serial dilution method; format: cell-based; details: 28° C., 44 to 48 hours, pH 7.0 medium
Method: Antiprotozoal activity of compound (I) was assayed with Tetrahymena pyriformis W as the test organism and a medium composed of 20 g tryptose-peptone (Difco Co.), 1 g yeast extract, 2 g glucose, 1000 ml distilled water, 10 ml 1 M phosphate buffer (pH 7.0) as the assay medium. The microorganism was incubated at 28° C. for 44 to 48 hours and the growth inhibitory activity of compound (I) was assayed by the serial dilution method.

Structure (SMILES)	Antitumor activities B-16 (T/C %) ([1]; dose 100 μg/kg)	Antitumor activities B-16 (T/C %) ([1]; dose 200 μg/kg)	Antitumor activities B-16 (T/C %) ([1]; dose 400 μg/kg)	Antitumor activities B-16 (T/C %) ([1]; dose 800 μg/kg)	MIC (Tetrahymena pyriformis W)	Antitumor activities B-16 (T/C %) ([1]; dose 3.125 μg/kg)	Antitumor activities B-16 (T/C %) ([1]; dose 6.25 μg/kg)	Antitumor activities B-16 (T/C %) ([1]; dose 12.5 μg/kg)
COc1cc2cc(c1Cl)N(C)C(=O)CC(OC(=O)C(O)c1ccccc1)C1(C)OC1C(C)C1CC(O)(NC(=O)O1)C(OC)C=CC=C(C)C2 (single isomer, unassigned) [maytansinol 3-α-hydroxyphenylacetate]	178%	208%	247%	217%	–	–	–	–
COc1cc2cc(c1Cl)N(C)C(=O)CC(OC(=O)C(OC(C)=O)c1ccccc1)C1(C)OC1C(C)C1CC(O)(NC(=O)O1)C(OC)C=CC=C(C)C2 (stereo not drawn) [Maytansinol 3-α-acetoxyphenylacetate, maytansinol 3-(α-acetoxyphenyl)acetate]	–	–	–	–	< 2 µg/mL	181%	260%	161%
COc1cc2cc(c1Cl)N(C)C(=O)CC(OC(=O)C(COC(C)=O)c1ccccc1)C1(C)OC1C(C)C1CC(O)(NC(=O)O1)C(OC)C=CC=C(C)C2 (stereo not drawn) [maytansinol 3-α-acetoxymethylphenylacetate]	–	–	–	–	1 to 2 µg/mL (≈ 1.32 to 2.65 µM)	–	–	–
